doi:10.1101/2020.07.22.215434v1 (biorxiv, 2020)

Assays:
Assay in all cases: whole-cell patch clamp
Assay type in all cases: cell-based
hCav 3.1 = hCav 3.1 (Homo sapiens, UniProt O43497); conditions: tonic block, step -100 to -30 mV, 5 mM Ba2+, pH 7.4, room temperature
hCav 3.2 [1] = molecular target: T1, hCav 3.2 (Homo sapiens, UniProt O95180); conditions: read-out: % inhibition at 10 μM
hCav 3.2 [2] = molecular target: T1, hCav 3.2; conditions: tonic block, step -100 to -30 mV, 5 mM Ba2+, pH 7.4, room temperature

T1 sequence (O95180 whole entry): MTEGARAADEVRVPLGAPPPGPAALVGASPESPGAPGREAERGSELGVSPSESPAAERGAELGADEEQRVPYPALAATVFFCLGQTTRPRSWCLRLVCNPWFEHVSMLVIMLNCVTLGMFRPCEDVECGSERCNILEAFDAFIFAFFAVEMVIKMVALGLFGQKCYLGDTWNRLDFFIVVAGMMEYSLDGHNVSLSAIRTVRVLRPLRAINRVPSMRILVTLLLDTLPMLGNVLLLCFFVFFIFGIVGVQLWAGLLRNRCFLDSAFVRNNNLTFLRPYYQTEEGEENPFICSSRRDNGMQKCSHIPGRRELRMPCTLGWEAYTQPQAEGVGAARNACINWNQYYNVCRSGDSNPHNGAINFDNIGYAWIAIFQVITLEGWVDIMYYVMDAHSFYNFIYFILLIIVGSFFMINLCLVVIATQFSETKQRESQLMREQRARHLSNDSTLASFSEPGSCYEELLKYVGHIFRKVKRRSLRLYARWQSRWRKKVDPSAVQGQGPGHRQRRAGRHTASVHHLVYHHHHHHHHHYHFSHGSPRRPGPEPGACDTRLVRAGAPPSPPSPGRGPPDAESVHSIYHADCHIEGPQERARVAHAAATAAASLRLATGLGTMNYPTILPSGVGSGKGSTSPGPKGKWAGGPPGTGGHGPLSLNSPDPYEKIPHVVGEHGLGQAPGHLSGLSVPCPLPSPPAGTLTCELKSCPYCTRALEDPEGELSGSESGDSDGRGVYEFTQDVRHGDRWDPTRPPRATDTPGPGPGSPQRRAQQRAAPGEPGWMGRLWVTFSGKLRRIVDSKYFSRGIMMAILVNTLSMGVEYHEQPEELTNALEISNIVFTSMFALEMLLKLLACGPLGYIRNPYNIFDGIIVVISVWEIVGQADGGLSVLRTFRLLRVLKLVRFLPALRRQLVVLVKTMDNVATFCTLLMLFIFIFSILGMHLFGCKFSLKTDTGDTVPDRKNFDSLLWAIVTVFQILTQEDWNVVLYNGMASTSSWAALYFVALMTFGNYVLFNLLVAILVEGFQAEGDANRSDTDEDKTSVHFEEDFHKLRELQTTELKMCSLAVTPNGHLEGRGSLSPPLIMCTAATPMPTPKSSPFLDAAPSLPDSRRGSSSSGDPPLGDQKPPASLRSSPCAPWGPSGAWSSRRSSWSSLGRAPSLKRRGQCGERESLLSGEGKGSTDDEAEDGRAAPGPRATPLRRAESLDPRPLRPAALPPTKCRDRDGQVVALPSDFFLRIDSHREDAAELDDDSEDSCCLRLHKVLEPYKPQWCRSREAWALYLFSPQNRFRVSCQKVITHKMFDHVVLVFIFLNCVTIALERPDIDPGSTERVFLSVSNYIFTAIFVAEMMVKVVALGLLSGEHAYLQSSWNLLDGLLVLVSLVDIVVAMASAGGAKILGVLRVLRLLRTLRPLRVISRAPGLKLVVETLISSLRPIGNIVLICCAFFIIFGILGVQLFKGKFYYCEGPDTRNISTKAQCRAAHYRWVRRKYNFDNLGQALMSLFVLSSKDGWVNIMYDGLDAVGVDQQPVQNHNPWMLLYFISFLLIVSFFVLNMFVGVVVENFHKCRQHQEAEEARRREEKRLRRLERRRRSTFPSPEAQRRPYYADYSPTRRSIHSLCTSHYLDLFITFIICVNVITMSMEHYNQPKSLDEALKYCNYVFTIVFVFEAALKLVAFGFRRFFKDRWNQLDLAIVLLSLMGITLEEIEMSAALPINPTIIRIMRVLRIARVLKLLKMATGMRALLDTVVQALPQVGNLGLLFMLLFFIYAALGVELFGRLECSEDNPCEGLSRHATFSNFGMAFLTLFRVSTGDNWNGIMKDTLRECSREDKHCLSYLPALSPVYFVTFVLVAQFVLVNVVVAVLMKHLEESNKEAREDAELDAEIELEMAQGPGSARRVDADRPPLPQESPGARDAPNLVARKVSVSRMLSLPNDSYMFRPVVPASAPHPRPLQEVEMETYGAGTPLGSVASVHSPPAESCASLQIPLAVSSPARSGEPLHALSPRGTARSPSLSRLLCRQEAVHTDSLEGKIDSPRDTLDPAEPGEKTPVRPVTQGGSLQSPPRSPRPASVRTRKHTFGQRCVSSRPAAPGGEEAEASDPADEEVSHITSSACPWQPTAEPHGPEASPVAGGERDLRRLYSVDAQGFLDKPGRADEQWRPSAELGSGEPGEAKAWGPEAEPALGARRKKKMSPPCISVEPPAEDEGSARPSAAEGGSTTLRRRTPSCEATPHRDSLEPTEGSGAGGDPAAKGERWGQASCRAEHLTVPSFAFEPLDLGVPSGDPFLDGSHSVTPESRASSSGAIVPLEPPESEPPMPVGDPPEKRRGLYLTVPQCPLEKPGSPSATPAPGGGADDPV
Chain of hCav 3.1 (O43497 whole entry): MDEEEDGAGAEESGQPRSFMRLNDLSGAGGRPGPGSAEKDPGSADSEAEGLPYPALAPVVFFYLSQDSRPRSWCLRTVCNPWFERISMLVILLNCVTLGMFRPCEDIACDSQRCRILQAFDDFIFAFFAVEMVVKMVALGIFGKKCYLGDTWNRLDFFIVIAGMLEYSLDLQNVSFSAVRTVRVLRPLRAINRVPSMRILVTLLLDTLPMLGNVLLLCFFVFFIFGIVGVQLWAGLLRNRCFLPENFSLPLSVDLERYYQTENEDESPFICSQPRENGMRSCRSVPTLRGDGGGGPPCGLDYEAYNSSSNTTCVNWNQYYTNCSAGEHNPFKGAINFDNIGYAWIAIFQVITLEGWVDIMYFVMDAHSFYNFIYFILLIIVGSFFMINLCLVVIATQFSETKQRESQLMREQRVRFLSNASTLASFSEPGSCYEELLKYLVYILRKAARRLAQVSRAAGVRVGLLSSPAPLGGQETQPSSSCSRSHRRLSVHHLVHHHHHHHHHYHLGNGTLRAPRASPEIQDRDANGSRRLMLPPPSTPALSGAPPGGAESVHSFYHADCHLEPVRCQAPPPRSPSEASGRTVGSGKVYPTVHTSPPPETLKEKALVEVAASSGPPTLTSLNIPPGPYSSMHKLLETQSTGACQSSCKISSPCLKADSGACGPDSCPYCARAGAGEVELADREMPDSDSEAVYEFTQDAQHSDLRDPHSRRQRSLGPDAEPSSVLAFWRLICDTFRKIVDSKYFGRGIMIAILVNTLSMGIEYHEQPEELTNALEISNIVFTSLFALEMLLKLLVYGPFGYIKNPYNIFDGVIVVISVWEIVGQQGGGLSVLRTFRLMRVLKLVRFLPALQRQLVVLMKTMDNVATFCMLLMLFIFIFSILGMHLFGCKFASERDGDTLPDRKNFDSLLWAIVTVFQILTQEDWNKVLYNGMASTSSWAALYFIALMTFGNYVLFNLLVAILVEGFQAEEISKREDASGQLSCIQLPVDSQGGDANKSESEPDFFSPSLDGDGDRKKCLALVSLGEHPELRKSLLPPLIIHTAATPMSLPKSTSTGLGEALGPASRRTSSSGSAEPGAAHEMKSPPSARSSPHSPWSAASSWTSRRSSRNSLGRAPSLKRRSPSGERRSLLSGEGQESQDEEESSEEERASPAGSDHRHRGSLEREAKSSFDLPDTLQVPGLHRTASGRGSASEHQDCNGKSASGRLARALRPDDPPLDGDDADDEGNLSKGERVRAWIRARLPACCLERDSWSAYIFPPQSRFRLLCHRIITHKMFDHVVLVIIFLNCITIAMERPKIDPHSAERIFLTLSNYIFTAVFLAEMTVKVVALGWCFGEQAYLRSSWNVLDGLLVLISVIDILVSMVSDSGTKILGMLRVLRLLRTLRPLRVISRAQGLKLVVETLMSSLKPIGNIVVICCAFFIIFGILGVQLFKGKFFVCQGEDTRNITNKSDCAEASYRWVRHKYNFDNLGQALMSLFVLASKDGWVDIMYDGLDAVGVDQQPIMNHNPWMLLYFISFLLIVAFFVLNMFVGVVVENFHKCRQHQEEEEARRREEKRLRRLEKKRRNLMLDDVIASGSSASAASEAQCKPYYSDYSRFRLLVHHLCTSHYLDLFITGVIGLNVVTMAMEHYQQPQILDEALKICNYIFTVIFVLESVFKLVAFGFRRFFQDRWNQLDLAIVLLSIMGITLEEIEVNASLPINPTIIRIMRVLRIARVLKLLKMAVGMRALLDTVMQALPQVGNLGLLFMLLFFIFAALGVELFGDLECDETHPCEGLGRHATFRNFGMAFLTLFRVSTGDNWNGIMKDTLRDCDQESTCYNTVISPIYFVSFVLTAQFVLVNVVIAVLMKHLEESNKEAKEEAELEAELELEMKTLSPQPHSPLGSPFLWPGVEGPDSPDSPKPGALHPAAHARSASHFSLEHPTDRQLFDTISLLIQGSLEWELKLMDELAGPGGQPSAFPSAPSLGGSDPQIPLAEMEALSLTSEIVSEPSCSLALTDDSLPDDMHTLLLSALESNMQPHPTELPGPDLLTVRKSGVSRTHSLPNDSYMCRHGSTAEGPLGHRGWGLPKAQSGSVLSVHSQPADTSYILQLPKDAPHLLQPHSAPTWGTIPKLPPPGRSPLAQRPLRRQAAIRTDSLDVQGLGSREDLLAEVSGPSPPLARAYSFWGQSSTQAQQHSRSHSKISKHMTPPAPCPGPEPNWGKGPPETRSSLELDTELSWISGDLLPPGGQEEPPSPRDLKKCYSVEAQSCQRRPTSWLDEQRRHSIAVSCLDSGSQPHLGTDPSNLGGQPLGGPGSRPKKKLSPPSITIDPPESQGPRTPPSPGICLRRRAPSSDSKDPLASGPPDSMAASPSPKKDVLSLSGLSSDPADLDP

Row | Structure (SMILES) | inhibition at 10 µM (hCav 3.2 [1]) [%] | IC50 (hCav 3.2 [2]) [nM] | also measured
1 | COC(=O)[C@@H](NC(=O)c1nn(CC2CCCCC2)c2ccccc12)C(C)(C)C [MDMB-CHMINACA] | – | – | % inhibition at 10 μM (hCav 3.1): > 80%
2 | CCCCCc1cc(O)c2c(c1)OC(C)(C)[C@@H]1CCC(C)=C[C@@H]21 [Δ9-THC] | 43 ± 2.4 | – | –
3 | C=C(C)[C@@H]1CCC(C)=C[C@H]1c1c(O)cc(CCCCC)cc1O [CBD] | 57 ± 5 | – | –
4 | COC(=O)C(NC(=O)c1cn(CC2CCCCC2)c2ccccc12)C(C)(C)C (centres unmarked) [MDMB-CHMICA, methyl-2-[[1-(cyclohexylmethyl)indole-3-carbonyl]amino]-3,3-dimethylbutanoate] | – | 1500 ± 200 | –
5 | COC(=O)C(NC(=O)c1nn(CC2CCCCC2)c2ccccc12)C(C)C (centres unmarked) [AMB-CHMINACA, methyl 2-((1-(cyclohexylmethyl)-1H-indazole-3-carbonyl)amino)-3-methylbutanoate] | – | 740 ± 300 | –
